The values that follow come from patent US20240246980A1, “MODULATORS OF MAS-RELATED G-PROTEIN RECEPTOR D AND RELATED PRODUCTS AND METHODS” (Escient Pharmaceuticals, Inc., priority 2022, published 2024).

The assay addresses human MRGPRD (Homo sapiens, UniProt Q8TDS7). The assay can be described thus: MRGPRD antagonist activity, IP-One HTRF assay in CHO cells stably expressing human MRGPRD (versus 100 μM β-Alanine agonist). The class given is cell-based. The procedure:
Chinese Hamster Ovary (CHO) cells stably expressing human MRGPRD (Eurofins, San Diego CA) were plated in a 384-well plate at 20,000 cells per well in 12 μL of Optimem (Fisher Scientific 11-058-021). Plates were kept in the incubator at 37° C. overnight. Antagonists were solubilized at a concentration of 10 mM in DMSO, and the agonists were solubilized to stock concentrations of either 50 mM in H2O (β-Alanine) or 10 mM in DMSO (all others) and then diluted in assay buffer (final concentrations of 5.7 mM Tris-HCl, 43 mM NaCl, 50 mM LiCl, pH=8). The concentration of DMSO was normalized across the plate. Antagonists were added to the plate using a Tecan D300 Digital Dispenser at nanoliter/picoliter volumes and 2 μL of agonists in assay buffer were added to each well for a final assay volume of 14 μL. Plates were covered and incubated for 1 h at 37° C. and then for 1 h at room temperature. IP-1 standards and HTRF detection reagents were added according to an IP-One-Gq Kit purchased from Cisbio (part number 62IPAPEJ) and incubated in the dark for 1 h at room temperature. Assay plates were read on either a Molecular Devices SpectraMax iD5 plate reader or a BMG ClarioStar plate reader. The HTRF ratio was calculated form the raw data and graphed using GraphPad Prism to calculate IC50 values. Data are expressed as average IC50 values and average percent antagonism calculated as a percent of the maximum efficacy response. For these studies, the variability of the data was assessed by determining the standard error of mean (SEM).
The activity ranges are denoted as follows: “+++++” denotes antagonist activity <100 nM; “++++” denotes antagonist activity between 100 and 500 nM; “+++” denotes activity between 500 and 1000 nM; “++” denotes activity between 1000 and 3000 nM; and “+” denotes activity >3000 nM.
For orientation: Time-resolved FRET reads energy transfer from a long-lived donor to a nearby acceptor.

A word on the pIC50: it is the negative decadic logarithm of the IC50, by convention in mol/L.

Structures are written as SMILES. pIC50: −log10 of the molar value.

Sequence of human MRGPRD (Q8TDS7 whole entry): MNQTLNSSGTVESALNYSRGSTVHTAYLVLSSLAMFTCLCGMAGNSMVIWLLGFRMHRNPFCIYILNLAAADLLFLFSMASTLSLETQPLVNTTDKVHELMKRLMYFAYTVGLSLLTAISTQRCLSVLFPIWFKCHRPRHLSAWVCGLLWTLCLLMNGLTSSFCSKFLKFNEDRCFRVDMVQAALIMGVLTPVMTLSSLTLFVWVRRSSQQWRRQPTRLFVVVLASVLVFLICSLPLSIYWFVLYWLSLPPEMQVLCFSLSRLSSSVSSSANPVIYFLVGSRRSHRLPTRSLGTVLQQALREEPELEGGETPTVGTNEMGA

`COc1ccc(-c2nc([C@@H]3CCCN(C(=O)Nc4ccc(N(C)C)cc4)C3)n3ccccc23)cc1` [Compound 10-43] gave a pIC50 of 6.00 to 6.30.
The figure for `COc1cccc(-c2nc([C@@H]3CCCN(C(=O)NC4CCN(C)CC4)C3)n3ccccc23)c1` [Compound 5-64] is 6.00 to 6.30; for `COc1cccc(-c2nc([C@@H]3CCCN(C(=O)Nc4ccccc4C(C)=O)C3)n3ccccc23)c1` [Compound 5-34] it is 5.52 to 6.00; for `COc1cccc(-c2nc([C@@H]3CCCN(C(=O)Nc4ccc(C(=O)N(C)C)cc4)C3)n3ccccc23)c1` [Compound 1-20] it is greater than 7.00.
The figure for `COc1cccc(-c2nc(C3CCCN(C(=O)Nc4ccccc4F)C3)n3cc(OC)ccc23)c1` (stereo not drawn) [Compound 19-3, N-(2-fluorophenyl)-3-(6-methoxy-1-(3-methoxyphenyl)imidazo[1,5-a]pyridin-3-yl)piperidine-1-carboxamide] is 5.52 to 6.00; for `Cc1csc(-c2nc([C@@H]3CCCN(C(=O)Nc4ccc(N(C)C)cc4)C3)n3ccccc23)c1` [Compound 10-58] it is 6.00 to 6.30.
Compound `CN(C)c1ccc(NC(=O)N2CCC[C@@H](c3nc(-c4ccc(-c5ccccc5)cc4)c4ccccn34)C2)cc1` [Compound 10-33] showed a pIC50 of less than 5.52.
For the compound `COc1cccc(-c2nc(C3CCCN(C(=O)Nc4ccc(F)cc4)C3)n3ccccc23)c1` (stereo not drawn) [Compound 3-1], the pIC50 is 6.30 to 7.00.
The figure for `CN(C)c1ccc(NC(=O)N2CCC[C@@H](c3nc(-c4ccccc4-c4ccccc4)c4ccccn34)C2)cc1` [Compound 10-20] is less than 5.52.
The result for `COc1cccc(-c2nc([C@@H]3CCCN(C(=O)Nc4cnc(C)nc4)C3)n3ccccc23)c1` [Compound 5-73] reads greater than 7.00; that for `COc1ccc(NC(=O)N2CCC[C@@H](c3nc(-c4cccc(OC)c4)c4ccccn34)C2)cc1` [Compound 1-17], greater than 7.00; that for `CN(C)c1ccc(NC(=O)N2CCC[C@@H](c3nc(-c4cccc(C#N)c4)c4ccccn34)C2)cc1` [Compound 10-12], 6.00 to 6.30.
The figure for `CNC(=O)N1CCC[C@@H]1c1nc(-c2cccc(OC)c2)c2ccccn12` [Compound 21-4] is less than 5.52; for `CCc1cccc(-c2nc([C@@H]3CCCN(C(=O)Nc4ccc(N(C)C)cc4)C3)n3ccccc23)c1` [Compound 10-9] it is 6.00 to 6.30.
With `COc1cccc(-c2nc(C3CCCN(C(=O)Cc4ccc(F)cc4)C3)n3ccccc23)c1` (stereo not drawn) [Compound 12-2], the pIC50 is 6.00 to 6.30.
The result for `CC(=O)c1ccc(-c2nc([C@@H]3CCCN(C(=O)Nc4ccc(N(C)C)cc4)C3)n3ccccc23)cc1` [Compound 10-36] reads 6.00 to 6.30; that for `CN(C)c1ccc(NC(=O)N2CCC[C@@H](c3nc(-c4cccc(OC(F)(F)F)c4)c4ccccn34)C2)cc1` [Compound 10-24], 6.00 to 6.30; that for `COc1cccc(-c2nc(C3CCCN(C(=O)c4cccc(F)c4)C3)n3ccccc23)c1` (stereo not drawn) [Compound 12-6], 6.30 to 7.00.
The result for `CCc1csc(NC(=O)N2CCC[C@@H](c3nc(-c4cccc(OC)c4)c4ccccn34)C2)n1` [Compound 5-54] reads 6.00 to 6.30; that for `COc1cccc(-c2nc([C@@H]3CCCN(C(=O)NCc4ccccc4)C3)n3ccccc23)c1` [Compound 5-60], greater than 7.00.
Take `CN(C)c1ccc(NC(=O)N2CCC[C@H](c3nc(-c4ccccc4)c4ccccn34)C2)cc1` [Compound 10-15]: the negative-log IC50 (pIC50) was 5.52 to 6.00.
The figure for `COc1cccc(-c2nc([C@@H]3CCCN(C(=O)NCCN4CCCCC4)C3)n3ccccc23)c1` [Compound 5-46] is 6.00 to 6.30; for `COc1cccc(-c2nc(C3CCCN(C(=O)N(C)c4ccccc4F)C3)n3ccccc23)c1` (stereo not drawn) [Compound 1-3] it is 5.52 to 6.00.
The result for `COc1cccc(-c2nc([C@@H]3CCCN(C(=O)Nc4ccc(-c5ccccc5)cc4)C3)n3ccccc23)c1` [Compound 5-22] reads 5.52 to 6.00; that for `COc1cccc(-c2nc(C3CCCN(C(=O)Nc4ccccc4F)C3)n3cc(C)ccc23)c1` (stereo not drawn) [Compound 18-1, N-(2-fluorophenyl)-3-(1-(3-methoxyphenyl)-6-methylimidazo[1,5-a]pyridin-3-yl)piperidine-1-carboxamide], 6.30 to 7.00; that for `CN(C)c1ccc(NC(=O)N2CCC[C@@H](c3nc(-c4csc5ccccc45)c4ccccn34)C2)cc1` [Compound 10-47], 6.30 to 7.00.
The result for `Cc1ccc(-c2nc(C3CCCN(C(=O)Nc4ccccc4F)C3)n3ccccc23)cc1` (stereo not drawn) [Compound 11-7] reads 5.52 to 6.00; that for `Cc1noc(C)c1-c1nc([C@@H]2CCCN(C(=O)Nc3ccc(N(C)C)cc3)C2)n2ccccc12` [Compound 10-55], 6.00 to 6.30.
`COc1cccc(-c2nn(-c3cccc(C(=O)Nc4ccc(N(C)C)cc4)c3)c3ncccc23)c1` [Compound 24-1, N-(4-(dimethylamino)phenyl)-3-(3-(3-methoxyphenyl)-1H-pyrazolo[3,4-b]pyridin-1-yl)benzamide] gave a pIC50 of 6.30 to 7.00.
The result for `COCc1cccc(-c2nc([C@@H]3CCCN(C(=O)Nc4ccc(N(C)C)cc4)C3)n3ccccc23)c1` [Compound 10-67] reads 5.52 to 6.00; that for `COc1cccc(-c2nc([C@@H]3CCCN(C(=O)Nc4cccc(C#N)c4)C3)n3ccccc23)c1` [Compound 1-16], 6.30 to 7.00; that for `O=C(Nc1ccccc1F)N1CCCC(c2nc(-c3ccccn3)c3ccccn23)C1` (stereo not drawn) [Compound 11-11], less than 5.52.
Consider `COc1cccc(-c2nc(C3CCN(C(=O)Nc4cccc(N(C)C)c4)CC3)n3ccccc23)c1` [Compound 5-8], for which the pIC50 is 5.52 to 6.00.
The figure for `COc1cccc(-c2nc([C@@H]3CCCN(C(=O)Nc4ccc(-n5cccn5)cc4)C3)n3ccccc23)c1` [Compound 5-16] is greater than 7.00; for `COc1cccc(-c2nc(C3CCCN(C(=O)Nc4cccc(F)c4)C3)n3ccccc23)c1` (stereo not drawn) [Compound 3-3] it is 6.30 to 7.00; for `CNc1ccc(NC(=O)N2CCC[C@@H](c3nc(-c4cccc(OC)c4)c4ccccn34)C2)cc1` [Compound 7-1, (R)-3-(1-(3-methoxyphenyl)imidazo[1,5-a]pyridin-3-yl)-N-(4-(methylamino)phenyl)piperidine-1-carboxamide] it is greater than 7.00.
The result for `COc1cccc(-c2nc([C@@H]3CCCN(C(=O)Nc4ccc(N(C)C)cc4C)C3)n3ccccc23)c1` [Compound 1-8] reads greater than 7.00.
The figure for `COc1cccc(-c2nc(-c3cccc(C(=O)Nc4cccc(N(C)C)c4)c3)n3ccccc23)c1` [Compound 8-1, N-(3-(dimethylamino)phenyl)-3-(1-(3-methoxyphenyl)imidazo[1,5-a]pyridin-3-yl)benzamide] is 6.30 to 7.00.
The compound `CN(C)Cc1cccc(-c2nc([C@@H]3CCCN(C(=O)Nc4ccc(N(C)C)cc4)C3)n3ccccc23)c1` [Compound 10-64] showed a pIC50 of less than 5.52.
The figure for `CN(C)c1ccc(NC(=O)N2CCC[C@@H](c3nc(C4=CCCCC4)c4ccccn34)C2)cc1` [Compound 10-44] is 6.30 to 7.00.
The figure for `CN(C)c1ccc(NC(=O)N2CCC[C@@H](c3nc(-c4ccccc4C(F)F)c4ccccn34)C2)cc1` [Compound 10-32] is 5.52 to 6.00; for `COc1cccc(-c2nc(C3CCCN(C(=O)NC4CC4)C3)n3ccccc23)c1` (stereo not drawn) [Compound 3-11] it is less than 5.52.
The figure for `COc1cccc(-c2nc(C3CCCN(C(=O)Nc4cccc(N(C)C)c4)C3)n3ncccc23)c1` (stereo not drawn) [Compound 5-19] is greater than 7.00; for `COc1cccc(-c2nc(C3CCCN(C(=O)Nc4ccccc4F)C3)n3ccc(C)cc23)c1` (stereo not drawn) [Compound 17-2] it is 6.00 to 6.30; for `COc1cccc(-c2nc(C3CCCN(C(=O)c4ccccc4F)C3)n3ccccc23)c1` (stereo not drawn) [Compound 12-5] it is 6.00 to 6.30.
In the case of `COc1cccc(-c2nc([C@H]3CCCN3C(=O)Nc3ccc(N(C)C)cc3)n3ccccc23)c1` [Compound 21-6], the pIC50 was less than 5.52.
The result for `COc1cccc(-c2nc(C3CCCN(C(=O)Nc4ccc(C)cc4)C3)n3ccccc23)c1` (stereo not drawn) [Compound 3-5] reads 6.30 to 7.00; that for `COc1cccc(-c2nc(C3CCCN(C(=O)c4ccc(OC)c(OC)c4)C3)n3c(OC)cccc23)c1` (stereo not drawn) [Compound 14-5], 6.30 to 7.00; that for `COc1cccc(-c2nc([C@@H]3CCCN(C(=O)Nc4cccc(C(F)(F)F)c4)C3)n3ccccc23)c1` [Compound 1-22], 6.00 to 6.30.
The result for `COc1cccc(-c2nc([C@@H]3CCCN(C(=O)Nc4ccc(OC(F)(F)F)cc4)C3)n3ccccc23)c1` [Compound 5-21] reads 6.00 to 6.30; that for `COc1cccc(-c2nc([C@@H]3CCCN(C(=O)NCCc4nc(C)cs4)C3)n3ccccc23)c1` [Compound 5-30], 6.30 to 7.00.
The result for `COc1cccc(-c2nc([C@H]3CCCN(C(=O)c4cccc(F)c4)C3)n3ccccc23)c1` [Compound 12-15] reads 6.30 to 7.00; that for `COc1cccc(-c2nc([C@@H]3CCCN(C(=O)Nc4nccs4)C3)n3ccccc23)c1` [Compound 5-67], greater than 7.00.
`COc1cccc(-c2nc(C3CCCN(C(=O)Nc4cccc(OC)c4C)C3)n3ccccc23)c1` (stereo not drawn) [Compound 3-26] gave a pIC50 of 6.30 to 7.00.
